Source: US20230190689A1, “METHODS AND COMPOSITIONS FOR INDUCING BROWN ADIPOGENESIS” (ENERGESIS PHARMACEUTICALS, INC., priority 2020, published 2023)
Where a name gives a salt, the structure may show the parent alone.

Experiments:
[1] = tested on: CD34+ brown adipocyte progenitor cells; assay: Multiplexed TaqMan real-time PCR of UCP1 and PPARγ2 mRNA (normalized to cyclophilin A) to quantify differentiation of CD34+ cells into brown adipocytes; type: cell-based, human; details: in vitro; first screen at 10 μM, actives retested at 1 nM to 50 μM
Description: A robust method, previously disclosed, was used for detection of CD34+ cell differentiation into brown adipocytes by simultaneously quantifying mRNA species corresponding to the brown adipocyte marker UCP1, the adipocyte marker PPARγ2, and the “housekeeping” gene cyclophilin A which was used as the internal control.
This method permits analysis of a large number of samples to identify agents that enhance the differentiation of CD34+ cells into brown adipocytes. When differentiated into brown adipocytes, CD34+ cells express much higher levels of UCP1 and PPARγ2 mRNA for a given level of cyclophilin A. UCP1 and PPARγ2 mRNA levels normalized to cyclophilin A mRNA levels give an indication of the level of differentiation of the CD34+ cells into brown adipocytes, independent of the total number of cells in the sample.
Quantification of UCP1, PPARγ2 and cyclophilin A mRNA by multiplexed TaqMan real-time PCR was thus used to quantify differentiation of the CD34+ cells into brown adipocytes.
UCP1 is the key protein in brown adipocytes responsible for uncoupled respiration and is also highly specific for brown adipocyte differentiation. It is expressed exclusively by fully differentiated brown adipocytes and not by the CD34+ progenitor cells. We used a real-time semi-quantitative RT PCR-based assay for detection of UCP1 expression, in order to screen for brown adipocyte recruiters. […] The assay has the added advantage of allowing light microscopic visualization of the distinct morphological changes accompanying differentiation into brown adipocytes. This serves as further confirmation of differentiation.
(§1) Cells were seeded at 10,000 per cm^2 (48-well tissue culture, Chemglass #CLS-3500-048), cultured until confluency (1-4 days) at 37° C. in Endothelial cell growth medium-2 (EGM2) (BulletKit growth medium, Lonza #CC-3162) and until differentiation (6-12 more days). After 1-4 days in EGM2 media the cells were incubated with test agents (or positive controls) for 2-3 days (from day −3 or −2 to day 0). Rosiglitazone (1 μM) and rhBMP7 (6.3 nM) were used as reference agents (positive controls). Then (on day 0) the culture media (containing the test agents or positive controls) was removed, and minimal adipogenic medium (MDM) was added and the cells were left to differentiate of 6-12 days. The MDM media is a modification of the adipogenic media described by Rodriguez et al., and contains: DMEM/Ham's F-12 50/50 Mix (3.151 g/1, 17.5 mM D-glucose, 3.651 g/l L-glutamine) (Cellgro #10-090-CV), 5 μg/ml (0.86 μM) insulin, 1 μM dexamethasone, 100 μM 3-isobutyl-1-methylxanthine, 0.2 nM 3,3′,5-triiodo-L-thyronine, 10 μg/ml (127 nM) transferrin, and 1% penicillin-streptomycin. Adipocyte scores were determined by light microscopy and defined as the number of cells, on a per well basis, that contain multilocular lipid droplets, at the end of the differentiation of the cells, approximately 6 to 12 days following the end of compound treatment and switch into MDM media.
Total RNA was prepared from cells using PureLink RNA Isolation Kit (Invitrogen #12183-016). Alternatively, cells were simply lyzed by freezing (−80° C.). First strand cDNA were synthesized using the High Capacity cDNA Reverse Transcription kit (Applied Biosystems, Foster City, Calif.) and random primers.
Quantitative real-time PCR was performed using an Applied Biosystems StepOnePlus™ instrument, TaqMan Gene Expression Master Mix (Applied Biosystems #4369016), and custom TaqMan gene expression probes and primers for human uncoupling protein-1 “UCP1” (GenBank NM_021833) and for human peptidylprolyl isomerase A “cyclophilin A” (GenBank NM_021130).
Cyclophilin A was used as a control to account for any variations due to the efficiency of reverse transcription. Arbitrary units were determined by normalizing target mRNA levels to cyclophilin A mRNA levels (based on Cts).

CD34+ cells [2] = assay: Quantification of UCP1 protein by fluorescence immunohistochemistry (IHC); type: cell-based, human
Procedure: Culturing and differentiation of CD34+ cells into brown adipocytes were performed using adipogenic differentiation medium lacking (Minimal Differentiation Medium, MDM) or containing 1 μM rosiglitazone (Reference Differentiation Medium, RDM). After 15 days of differentiation cells were fixed with 4% Paraformaldehyde PBS pH 7.4, and incubated with a UCP1 antibody (Abcam ab23841) and Alexafluor 488 goat anti-rabbit antibody to quantify relative UCP1 levels (green) according to standard protocols. Prior to fixation of cells, nuclei were labeled with 5 μM DAPI (blue) for 10 minutes. Each treatment condition was evaluated in triplicate in a 96-well plate corresponding to approximately 360-480 cells for each data point in total. The InCell 1000 Developer Toolbox software was used to develop an automated cell detection script to measure UCP1 signal intensity, using the nuclei and cytoplasm detection algorithms. As a readout, total intensity of UCP1 signal within the cell was used, normalized to cell number.

CD34+ cells [3] = assay: Light microscopy of CD34+ cells for brown adipocyte differentiation (multilocular lipid-containing cells); type: cell-based, human; details: CD34+ cells 6 days following the end of compound treatment and switch into MDM media
Procedure: as §1
Pictures of cells were taken using a hand-held digital camera (Nikon Coolpix 950) and inverted microscope (Nikon TMS) used for cell culture observations; images were optimized using Paint.net version 4.0 functions for Auto-Level Brightness and Contrast.

DIO mice = assay: DIO mouse study of metabolic health, once-daily oral gavage for 28 to 56 days; type: in vivo, C57Bl/6 mice; details: oral gavage once a day, bezafibrate 60 mg/kg, oxaprozin 50 mg/kg, vs vehicle
Procedure: Obesity and insulin resistance, an early stage in the development of type 2 diabetes (or pre-diabetes), was induced in C57Bl/6 mice by feeding the mice with a high fat diet (Research diet, Cat #D12492, 60/a fat kcal) for 12 weeks starting at 6 weeks of age. The mice were maintained at 22-23° C. with abundant bedding material, maintaining the animals in an environmental temperature close to their thermoneutrality, starting 2 weeks prior to the dosing period and for the full dosing period with a 12 h/12 h light/dark cycle.
Mice were dosed once per day by oral gavage (200 μl per mouse), first for 3 days with the vehicle (PBS+0.5% CMC+0.1% Tween-80) as acclimation for running into the study, then with either vehicle alone or testing material dissolved in the vehicle for […] (4 to 8 weeks).
Body weight was recorded every 3 days, body composition (fat and lean mass with EchoMRI) was assessed at the end of the study (University of Cincinnati Mouse Metabolic Phenotyping Center), blood glucose level (measured with a glucometer) was monitored 3-5 days before (baseline) and at the end of the dosing period.
At the end of the dosing period, animals were fasted for 6 hours and euthanized by CO2, blood was collected, and plasma was isolated and saved at −20° C. Plasma glucose, insulin and leptin levels were assessed 3-5 days before (baseline) and at the end of the dosing period (mice were fasted for 6 hours before all plasma collection) (University of Cincinnati Mouse Metabolic Phenotyping Center). Insulin sensitivity was determined using the homeostasis model assessment of insulin resistance (HOMA-IR). HOMA-IR=(plasma insulin [microIU/ml] x plasma glucose [mM])/22.5.
The mice were maintained on a high fat diet (60% calories from fat) throughout the study. An overnight fast was performed the last night of the study in preparation for glucose tolerance testing.

SMILES | differentiation of brown adipocyte progenitor cells into brown adipocytes, as indicated by expression of UCP1 and PPARγ2 [1] | agents identified by quantification of UCP1 protein by fluorescence IHC (CD34+ cells [2]) | further results
COc1ccc2c(c1)c(CC(=O)OCC(=O)O)c(C)n2C(=O)c1ccc(Cl)cc1 [Acemethacin] | promote the differentiation of brown adipocyte progenitor cells into brown adipocytes |  | 
COc1cc2c(c(OC)c1OC)-c1ccc(OC)c(=O)cc1[C@@H](NC(C)=O)CC2 [Colchicine] |  | identified using this technique | 
O=C(O)Cc1ccccc1Nc1c(Cl)cccc1Cl [Diclofenac] | promote the differentiation of brown adipocyte progenitor cells into brown adipocytes |  | 
NC(N)=Nc1nc(CSCCC(N)=NS(N)(=O)=O)cs1 [Famotidine] |  | identified using this technique | 
CCC1=C(C)CN(C(=O)NCCc2ccc(S(=O)(=O)NC(=O)N[C@H]3CC[C@H](C)CC3)cc2)C1=O [Glimepiride] | promote the differentiation of brown adipocyte progenitor cells into brown adipocytes |  | 
N=C(N)NC(=O)Cc1c(Cl)cccc1Cl [Guanfacine hydrochloride] |  | identified using this technique | 
COc1ccc2c(c1)c(CC(=O)O)c(C)n2C(=O)c1ccc(Cl)cc1 [Indomethacin] | promote the differentiation of brown adipocyte progenitor cells into brown adipocytes |  | 
Cc1ccc(Cl)c(Nc2ccccc2C(=O)O)c1Cl [Meclofenamate] | promote the differentiation of brown adipocyte progenitor cells into brown adipocytes |  | 
Cc1cccc(Nc2ccccc2C(=O)O)c1C [Mefenamic acid] | promote the differentiation of brown adipocyte progenitor cells into brown adipocytes |  | 
CN(C)C(=N)N=C(N)N [Metformin] |  | identified using this technique | 
O=C(O)c1cccnc1Nc1cccc(C(F)(F)F)c1 [Niflumic acid] | promote the differentiation of brown adipocyte progenitor cells into brown adipocytes |  | 
COC(=O)[C@H]1[C@H]2C[C@@H]3c4[nH]c5cc(OC)ccc5c4CCN3C[C@H]2C[C@@H](OC(=O)c2cc(OC)c(OC)c(OC)c2)[C@@H]1OC [Reserpine] |  | identified using this technique | 
O=C(CCCN1CCC2(CC1)C(=O)NCN2c1ccccc1)c1ccc(F)cc1 [Spiperone] |  | identified using this technique | 
CCOC(=O)Oc1c(OC)cc(C(=O)O[C@@H]2C[C@@H]3CN4CCc5c([nH]c6cc(OC)ccc56)[C@H]4C[C@@H]3[C@H](C(=O)OC)[C@H]2OC)cc1OC [Syrosingopine] |  | identified using this technique | 
CCSc1ccc2c(c1)N(CCCN1CCN(C)CC1)c1ccccc1S2 [Thiethylperazine] |  | identified using this technique | 
CCN(CC)CCNC(=O)c1cc(S(C)(=O)=O)ccc1OC [Tiapride hydrochloride] |  | identified using this technique | 
CCCCC[C@H](O)/C=C/[C@H]1[C@H](O)CC(=O)[C@@H]1CCCCCCC(=O)O [alprostadil, Alprostadil] | promote the differentiation of brown adipocyte progenitor cells into brown adipocytes |  | brown adipocyte formation by light microscopy (CD34+ cells [3]): promote brown adipocyte formation
COc1ccc2c(c1)C(=O)N(CCc1ccc(S(=O)(=O)NC(=O)NC3CCCCC3)cc1)C(=O)C2(C)C [gliquidone, Gliquidone] | promote the differentiation of brown adipocyte progenitor cells into brown adipocytes |  | brown adipocyte formation by light microscopy (CD34+ cells [3]): promote brown adipocyte formation
O=C(O)CCc1nc(-c2ccccc2)c(-c2ccccc2)o1 [oxaprozin, 3-(4,5-Diphenyloxazol-2-yl)propionic acid] | promote the differentiation of brown adipocyte progenitor cells into brown adipocytes |  | body fat mass (DIO mice; MRI): significant decreases; body weight (DIO mice): significant decreases; glycemia (DIO mice): significant decreases; plasma insulin (DIO mice): significant decreases; plasma leptin (DIO mice): significant decreases
O=C(O)/C=C/c1ccc(Cn2ccnc2)cc1 [ozagrel, (2E)−3-{4-[(1H-imidazol-1-yl)methyl]phenyl}prop-2-enoic acid] | promote the differentiation of brown adipocyte progenitor cells into brown adipocytes |  | brown adipocyte formation by light microscopy (CD34+ cells [3]): promote brown adipocyte formation
CN1c2ccccc2C(NCCCCCCC(=O)O)c2ccc(Cl)cc2S1(=O)=O (centres unmarked) [tianeptine, Tianeptine] | promote the differentiation of brown adipocyte progenitor cells into brown adipocytes |  | brown adipocyte formation by light microscopy (CD34+ cells [3]): promote brown adipocyte formation
CC(C(=O)O)c1ccc2c(c1)CC(=O)c1ccccc1S2 (centres unmarked) [zaltoprofen, 2-(6-Oxo-5H-benzo[b][1]benzothiepin-3-yl)propanoic acid] | promote the differentiation of brown adipocyte progenitor cells into brown adipocytes |  | brown adipocyte formation by light microscopy (CD34+ cells [3]): promote brown adipocyte formation
